Experimental data reported in ChEMBL document CHEMBL1123967, “New potent antagonists of leukotrienes C4 and D4. 1. Synthesis and structure-activity relationships” (J Med Chem, 1988).

How the values were obtained:
Cavia porcellus [1] = assay: Inhibition of LTD4 induced bronchoconstriction in guinea pig at dose of (0.5 ug/kg) given intravenously; type: functional; conditions: iv, read-out: ID50 (the source's name)
Cavia porcellus [2] = assay: Inhibition of LTE4 induced bronchoconstriction in guinea pig at dose of 1 ug/kg given intravenously; type: functional; conditions: iv, read-out: ID50 (the source's name)
Cavia porcellus [3] = assay: Inhibition of LTB4 induced bronchoconstriction in guinea pig at dose of 3 ug/kg given intravenously; type: functional; conditions: iv, read-out: ID50 (the source's name)
Cavia porcellus [4] = assay: Inhibition of LTD4 (5 ng/site) induced vascular permeability in guinea pig skin at dose 10 mg/kg given perorally; type: functional; conditions: route oral
[5] = molecular target: Cysteinyl leukotriene receptor (Homo sapiens) (UniProt Q9Y271+Q9NS75); assay: In vivo inhibition of LTD4-induced bronchoconstriction in anesthetized guinea pig.; type: functional, organism-based; conditions: Cavia porcellus; target entry is the homologue from another species
Cavia porcellus [6] = assay: Inhibition of LTD4 (5 ng/site) induced vascular permeability in guinea pig skin at dose 30 mg/kg given perorally; type: functional; conditions: route oral
[7] = molecular target: T1, Cysteinyl leukotriene receptor (Homo sapiens, UniProt Q9Y271+Q9NS75); assay: Inhibition of LTC4 induced smooth muscle contraction of guinea pig ileum; type: functional, tissue-based, Cavia porcellus; conditions: target entry is the homologue from another species
T1 sequence (Q9Y271 whole entry): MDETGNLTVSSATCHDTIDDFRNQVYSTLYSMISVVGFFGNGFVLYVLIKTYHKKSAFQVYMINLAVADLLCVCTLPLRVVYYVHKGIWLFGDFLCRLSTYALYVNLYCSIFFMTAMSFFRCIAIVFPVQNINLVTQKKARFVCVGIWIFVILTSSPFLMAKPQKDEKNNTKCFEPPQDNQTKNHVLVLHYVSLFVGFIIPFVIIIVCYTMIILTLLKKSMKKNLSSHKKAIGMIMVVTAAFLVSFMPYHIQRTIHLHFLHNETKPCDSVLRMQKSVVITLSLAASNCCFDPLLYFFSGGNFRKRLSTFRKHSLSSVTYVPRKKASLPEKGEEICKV
T1 sequence (Q9NS75 whole entry): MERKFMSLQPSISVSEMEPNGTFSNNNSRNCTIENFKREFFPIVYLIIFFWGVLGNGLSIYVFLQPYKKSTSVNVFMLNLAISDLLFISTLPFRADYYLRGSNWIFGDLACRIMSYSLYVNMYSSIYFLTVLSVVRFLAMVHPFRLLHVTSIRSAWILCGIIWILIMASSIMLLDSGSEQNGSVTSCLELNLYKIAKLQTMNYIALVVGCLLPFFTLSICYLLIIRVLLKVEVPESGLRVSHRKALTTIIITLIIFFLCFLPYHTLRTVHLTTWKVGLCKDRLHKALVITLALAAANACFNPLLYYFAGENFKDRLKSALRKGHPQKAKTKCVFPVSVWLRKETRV

Cavia porcellus [8] = assay: Inhibition of LTC4 induced bronchoconstriction in guinea pig at dose of (0.5 ug/kg) given intravenously; type: functional; conditions: iv, read-out: ID50 (the source's name)
Cavia porcellus [9] = assay: Inhibition of LTC4-induced bronchoconstriction in guinea pig at dose of (0.5 ug/kg) given intravenously; type: functional; conditions: iv, read-out: ID50 (the source's name)
Cavia porcellus [10] = assay: Inhibition of LTE4-induced bronchoconstriction in guinea pig at dose of (1 ug/kg) given intravenously; type: functional; conditions: iv, read-out: ID50 (the source's name)
Cavia porcellus [11] = assay: Inhibition of LTD4 (5 ng/site) induced vascular permeability in guinea pig skin at dose 1 mg/kg given perorally; type: functional; conditions: route oral
Cavia porcellus [12] = assay: Inhibition of LTD4 (5 ng/site) induced vascular permeability in guinea pig skin at dose 0.3 mg/kg given perorally; type: functional; conditions: route oral
Cavia porcellus [13] = assay: Inhibition of LTD4-induced bronchoconstriction in guinea pig in guinea pig at dose of (0.5 ug/kg) given intravenously; type: functional; conditions: iv, read-out: ID50 (the source's name)
Cavia porcellus [14] = assay: Inhibition of LTB4 induced bronchoconstriction in guinea pig at dose of (1 ug/kg) given intravenously; type: functional; conditions: iv, read-out: ID50 (the source's name)
Cavia porcellus [15] = assay: Inhibition of LTD4-induced bronchoconstriction in guinea pig at dose of (0.5 ug/kg) given intravenously; type: functional; conditions: iv, read-out: ID50 (the source's name)

SMILES | ID50 [5] [µg/kg] | IC50 [7] [nM] | ED50 (Cavia porcellus [3]) [µg/kg] | inhibition in vivo at 10 mg/kg (Cavia porcellus [4]) [%] | inhibition in vivo at 30 mg/kg (Cavia porcellus [6]) [%] | ED50 (Cavia porcellus [9]) [µg/kg] | ED50 (Cavia porcellus [10]) [µg/kg] | inhibition in vivo at 1 mg/kg (Cavia porcellus [11]) [%] | inhibition in vivo at 0.3 mg/kg (Cavia porcellus [12]) [%] | further results
CCCCC/C=C/COc1ccc(C(=O)Nc2cccc3c2OC(c2nnn[nH]2)CO3)cc1 (stereo unspecified) | 2 | 2 | – | 30.4 | < 43.8 | – | – | – | – | –
C=CCCCCCCOc1ccc(C(=O)Nc2cccc3c(=O)cc(-c4nn[nH]n4)oc23)cc1 | 1.9 | 0.11 | – | – | – | – | – | < 60.7 | < 46.7 | –
CCCCC/C=C/COc1ccc(C(=O)Nc2cccc3c(=O)cc(-c4nn[nH]n4)oc23)cc1 | 0.72 | 0.06 | – | – | – | – | – | 25 | – | –
CCCc1c(OCC(O)COc2ccc3c(=O)cc(C(=O)[O-])oc3c2CCC)ccc(C(C)=O)c1O.[Na+] (stereo unspecified) [FPL-55712 SODIUM SALT] | 500 | – | – | – | – | 155 | 211 | – | – | ED50 (Cavia porcellus [14]): > 500 µg/kg; ED50 (Cavia porcellus [15]): 440 µg/kg

Second part, led by results:

ID50 [5] [µg/kg] | IC50 [7] [nM] | SMILES | ED50 (Cavia porcellus [3]) [µg/kg] | inhibition in vivo at 10 mg/kg (Cavia porcellus [4]) [%] | inhibition in vivo at 30 mg/kg (Cavia porcellus [6]) [%] | ED50 (Cavia porcellus [9]) [µg/kg] | ED50 (Cavia porcellus [10]) [µg/kg] | inhibition in vivo at 1 mg/kg (Cavia porcellus [11]) [%] | inhibition in vivo at 0.3 mg/kg (Cavia porcellus [12]) [%] | further results
1.2 | 0.37 | O=C(Nc1cccc2c1OC(c1nnn[nH]1)CO2)c1ccc(OCCCCc2ccccc2)cc1 (stereo unspecified) | > 500 | 61.8 | 63.2 | – | – | – | – | ED50 (Cavia porcellus [1]): 4.4 µg/kg; ED50 (Cavia porcellus [2]): 2 µg/kg; ED50 (Cavia porcellus [8]): 1.1 µg/kg
0.8 | – | O=C(Nc1cccc2c(=O)cc(-c3nnn[nH]3)oc12)c1ccc(OCCCCc2ccccc2)cc1 | > 500 | – | – | 0.8 | 0.7 | 75.2 | 74.7 | ED50 (Cavia porcellus [13]): 1 µg/kg
